Measurements taken from patent US12290519B2, “Anti-inflammatory coupling compound drug, and preparation method therefor and use thereof” (COVAL BIOPHARMA (SHANGHAI) CO., LTD., priority 2021, dated 2025).

What was measured:
[1] = Hydrolysis rate / drug release rate of the compounds (release of JAK inhibitor, HPLC); format: physicochemical; settings: % release of JAK inhibitor from sample in acetonitrile/water=7/3 (v/v), 37° C. constant temperature shaker, sampled days 1-4, HPLC
Outline: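 HPLC quantified parent JAK inhibitor freed from each compound, calibrated with 0.0002–0.08 mg/mL standards. Samples in acetonitrile/water 7/3 were kept sealed at 37° C and analysed at day 0 and on days 1 to 4. % release was computed from sample weight, curve slope/intercept and the molecular-weight ratio.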

[2] = test system: IMQ-induced psoriasis mouse model; experiment: IMQ-induced psoriasis mouse model, PASI score of compound ointments applied to skin; format: in vivo; settings: ointment 20 mg/g, 50 mg, skin smear BID, day 1 to day 9; BALB/c mice, 5% IMQ cream; Two-way ANOVA p<0.05
Protocol: Efficacy Evaluation Study of Ointment Transdermal Patch Formulated by Compounds Using IMQ-Induced Psoriasis Mouse Model
BALB/c mice (male) aged 6-8 weeks were selected to have depilated back skin with an area of 2×3 cm. 5% IMQ cream 62.5 mg was applied once a day for 9 consecutive days for model induction. Mice were housed in an SPF-grade animal room in IVC cages at a temperature of 20-26° C. and a humidity of 40-70% under a 12-hour light-dark cycle. Diet ad libitum, except where fasting is required.
Mice were randomly divided into groups, a number of 8 mice, administration concentration 20 mg/g, administration amount 50 mg, administration route, and frequency: skin smear, BID. The positive control was compound dexamethasone acetate (Dex) cream which is a commercially available product with a Dex content of 0.75 mg/g (999 Piyanping, Sanjiu Pharmaceutical). Dosing started from day 1 (the first day) (the day of model induction) to day 9.
2. Preparation of Test Ointment
Topical preparations are mostly semi-solid dosage forms. The base and solvent of a semi-solid dosage form are generally widely used in medicine and daily chemical products. The excipients which can be added are also the common excipients in the manual of excipients. Therefore, the patent compounds are prepared into corresponding test ointments. The ointment compound was dissolved with diisopropyl adipate to prepare a vaseline-based ointment. In order to improve the stability of the ointment, microcrystalline cellulose was added as an excipient in the formulation. The white vaseline has a melting point of 45-60° C. The solution, white vaseline, and microcrystalline cellulose are thoroughly mixed while the vaseline is in a molten state. After cooling to solidification, it was divided into an aluminum ointment, and the specific weight ratios of base, solvent, and excipients are shown in Table 4.
Dorsal modeling site skin PASI was performed on the experimental animals.
Statistical analysis of PASI scores was performed using Two-way ANOVA. All data were analyzed using GraphPad Prism 8.0 software with a p<0.05 significant difference (*, p<0.05; **, p<0.01).
The PASI score curves of CPD-029, CPD-028, CPD-027, CPD-017, and CPD-002 compared with the model group, excipient group, and Dex cream group are shown in FIGS. 1, 2, 3, 4, and 5, respectively. Among them, the model group was treated with 62.5 mg of 5% IMQ cream applied to the back skin of mice once daily to induce psoriasis, and the excipient group was treated with 15% (w/w) diisopropyl adipate, 80% vaseline, and […].

SMILES | Release Rate (%/day) [1] [%/day] | PASI score: therapeutic effect compared with the excipient group [2]
CC(C)Cc1ccc([C@H](C)C(=O)n2ccc3c(N(C)[C@H]4CN(C(=O)CC#N)CC[C@H]4C)ncnc32)cc1 [Ex. 2, 3-((3R,4R)-3-((7-((S)-2-(4-isobutylphenyl)propanoyl)-7H-pyrrolo[2,3-d]pyrimidin-4-yl) (methyl)amino)-4-methylpiperidin-1-yl)-3-oxopropanenitrile] | 8.5 | significant therapeutic effect in day 4 day 8
CCS(=O)(=O)N1CC(CC#N)(n2cc(-c3ncnc4c3ccn4C(=O)[C@@H](C)c3ccc(CC(C)C)cc3)cn2)C1 [Ex. 17, (S)-2-(1-(ethylsulfonyl)-3-(4-(7-(2-(4-isobutyl-phenyl)propanoyl)-7H-pyrrolo[2,3-d]pyrimidin-4-yl)-1H-pyrazol-1-yl)azetidin-3-yl)acetonitrile] | 2.44 | significant therapeutic effect in day 5-day 10
CNS(=O)(=O)CC1CCC(N(C)c2ncnc3c2ccn3COC(=O)C(C)c2ccc(-c3ccccc3)c(F)c2)CC1 (stereo not drawn) [Ex. 113, (4-(Methyl ((trans)-4-((N-methylsulfamoyl)methyl)cyclohexyl)amino)-7H-pyrrolo [2,3-d]pyrimidin-7-yl) methyl 2-(2-fluoro-[1, 1′-biphenyl]-4-yl) propanoate] | 0.42 | –
CNS(=O)(=O)CC1CCC(N(C)c2ncnc3c2ccn3COC(=O)Cc2c(C)n(C(=O)c3ccc(Cl)cc3)c3ccc(OC)cc23)CC1 (stereo not drawn) [Ex. 116, (4-(Methyl ((trans)-4-((N-methylsulfamoyl)methyl)cyclohexyl)amino)-7H-pyrrolo [2,3-d]pyrimidin-7-yl) methyl 2-(1-(4-chlorobenzoyl)-5-methoxy-2-methyl-1H-indol-3-yl) acetate] | 0.42 | –
CCC(C(=O)OCn1ccc2c(N(C)C3CCC(CS(=O)(=O)NC)CC3)ncnc21)c1ccc(N2Cc3ccccc3C2=O)cc1 (stereo not drawn) [Ex. 117, (4-(Methyl ((trans)-4-((N-methylsulfamoyl)methyl)cyclohexyl)amino)-7H-pyrrolo [2,3-d]pyrimidin-7-yl) methyl 2-(4-(1-)oxoisoindolin-2-yl) phenyl) butanoate] | 0.08 | –
CNS(=O)(=O)C[C@H]1CC[C@H](N(C)c2ncnc3c2ccn3COC(=O)c2ccccc2Nc2cccc(Cl)c2C)CC1 [Ex. 120, (4-(Methyl ((trans)-4-((N-methylsulfamoyl)methyl)cyclohexyl)amino)-7H-pyrrolo [2,3-d]pyrimidin-7-yl) methyl 2-((3-chloro-2-methylphenyl)amino) benzoate] | 0.42 | –
CCS(=O)(=O)N1CC(CC#N)(n2cc(-c3ncnc4c3ccn4COC3=C(C(=O)Nc4ncc(C)s4)N(C)S(=O)(=O)c4ccccc43)cn2)C1 [Ex. 122, 4-((4-(1-(3-(Cyanomethyl)-1-(ethylsulfonyl)azetidin-3-yl)-1H-pyrazol-4-yl)-7H-pyrrolo [2,3-d]pyrimidin-7-yl)methoxy)-2-methyl-N-(5-methylthiazol-2-yl)-2H-benzo [e] [1, 2] thiazine-3-carboxamide 1,1-dioxide] | 15.32 | –
CC[C@@H]1CN(C(=O)NCC(F)(F)F)C[C@@H]1c1cnc2cnc3c(ccn3C(=O)[C@@H](C)c3ccc(CC(C)C)cc3)n12 [Ex. 123, (3S, 4R)-3-ethyl-4-(3-((S)-2-(4-isobutylphenyl)propanoyl)-3H-imidazo [1,2-a]pyrrolo [2,3-e]pyrazin-8-yl)-N-(2,2,2-trifluoroethyl) pyrrolidine-1-carboxamide] | 3.02 | –
CC[C@@H]1CN(C(=O)NCC(F)(F)F)C[C@@H]1c1cnc2cnc3c(ccn3C(=O)C(C)c3ccc(CC(C)C)cc3)n12 (stereo partly drawn) [Ex. 124, (3S, 4R)-3-ethyl-4-(3-(2-(4-isobutylphenyl)propanoyl)-3H-imidazo [1,2-a]pyrrolo [2,3-e]pyrazin-8-yl)-N-(2,2,2-trifluoroethyl) pyrrolidine-1-carboxamide] | 2.75 | –
CC[C@@H]1CN(C(=O)NCC(F)(F)F)C[C@@H]1c1cnc2cnc3c(ccn3C(=O)C(C)c3ccc(-c4ccccc4)c(F)c3)n12 (stereo partly drawn) [Ex. 125, (3S, 4R)-3-ethyl-4-(3-(2-(2-fluoro-[1, 1′-biphenyl]-4-yl)propanoyl)-3H-imidazo [1,2-a]pyrrolo [2,3-e]pyrazin-8-yl)-N-(2,2,2-trifluoroethyl) pyrrolidine-1-carboxamide] | 6.17 | –
CC[C@@H]1CN(C(=O)NCC(F)(F)F)C[C@@H]1c1cnc2cnc3c(ccn3C(=O)C(C)c3cccc(C(=O)c4ccccc4)c3)n12 (stereo partly drawn) [Ex. 126, (3R, 4S)-3-(3-(2-(3-benzoylphenyl)propanoyl)-3H-imidazo [1,2-a]pyrrolo [2,3-e]pyrazin-8-yl)-4-ethyl-N-(2,2,2-trifluoroethyl) pyrrolidine-1-carboxamide] | 7.80 | –
CC[C@@H]1CN(C(=O)NCC(F)(F)F)C[C@@H]1c1cnc2cnc3c(ccn3C(=O)c3ccccc3Nc3cccc(Cl)c3C)n12 [Ex. 130, (3R, 4S)-3-(3-(2-((3-chloro-2-methylphenyl)amino)benzoyl)-3H-imidazo [1,2-a]pyrrolo [2,3-e]pyrazin-8-yl)-4-ethyl-N-(2,2,2-trifluoroethyl) pyrrolidine-1-carboxamide] | 11.67 | –
CC[C@@H]1CN(C(=O)NCC(F)(F)F)C[C@@H]1c1cnc2cnc3c(ccn3C(=O)[C@@H](C)c3ccc4cc(OC)ccc4c3)n12 [Ex. 131] | 3.56 | –
CC[C@@H]1CN(C(=O)NCC(F)(F)F)C[C@@H]1c1cnc2cnc3c(ccn3C(=O)Cc3c(C)n(C(=O)c4ccc(Cl)cc4)c4ccc(OC)cc34)n12 [Ex. 133, (3R, 4S)-3-(3-(2-(1-(4-Chlorobenzoyl)-5-methoxy-2-methyl-1H-indol-3-yl)acetyl)-3H-imidazo [1,2-a]pyrrolo [2,3-e]pyrazin-8-yl)-4-ethyl-N-(2,2,2-trifluoroethyl) pyrrolidine-1-carboxamide] | 10.13 | –
CCC(C(=O)n1ccc2c1ncc1ncc([C@H]3CN(C(=O)NCC(F)(F)F)C[C@H]3CC)n12)c1ccc(N2Cc3ccccc3C2=O)cc1 (stereo partly drawn) [Ex. 138] | 2.15 | –
CC(C)Cc1ccc([C@H](C)C(=O)n2ccc3c(N4CC[C@]5(C4)[C@@H](C)CN5C(=O)CC#N)ncnc32)cc1 [Ex. 140, 3-((3S, 4R)-6-(7-((S)-2-(4-isobutylphenyl)propanoyl)-7H-pyrrolo [2,3-d]pyrimidin-4-yl)-3-methyl-1,6-diazaspiro [3.4]oct-1-yl)-3-oxopropanenitrile] | 8.10 | –
Cc1cnc(NC(=O)C2=C(OCn3ccc4c(N(C)[C@H]5CN(C(=O)CC#N)CC[C@H]5C)ncnc43)c3ccccc3S(=O)(=O)N2C)s1 [Ex. 142, 4-((4-(((3R, 4R)-1-(2-cyanoacetyl)-4-methylpiperidin-3-yl) (methyl)amino)-7H-pyrrolo [2,3-d]pyrimidin-7-yl)methoxy)-2-methyl-N-(5-methylthiazol-2-yl)-2H-benzo [e] [1, 2] thiazine-3-carboxamide 1,1-dioxide] | 0.05 | –
CCC(C(=O)n1ccc2c(N3CC[C@]4(C3)[C@@H](C)CN4C(=O)CC#N)ncnc21)c1ccc(N2Cc3ccccc3C2=O)cc1 (stereo partly drawn) [Ex. 143, 3-((3S, 4R)-3-methyl-6-(7-(2-(4-(1-oxoisoindolin-2-yl)phenyl)butanoyl)-7H-pyrrolo [2,3-d]pyrimidin-4-yl)-1,6-diazaspiro [3.4]octan-1-yl)-3-oxopropanenitrile] | 4.29 | –
CC(C)Cc1ccc([C@H](C)C(=O)OCn2ccc3c(N4CC[C@]5(C4)[C@@H](C)CN5C(=O)CC#N)ncnc32)cc1 [Ex. 144, (4-((3S, 4R)-1-(2-cyanoacetyl)-3-methyl-1,6-diazaspiro [3.4]octan-6-yl)-7H-pyrrolo [2,3-d]pyrimidin-7-yl) methyl (S)-2-(4-isobutylphenyl) propanoate] | 0.05 | –
